Assay results published in patent US20110105392A1 (ELI LILLY AND COMPANY, priority 2008, published 2011).

What was measured:
healthy volunteers = test: Euglycaemic glucose clamp after single SC dose in healthy volunteers; format: in vivo, human
Experimental: In all treatment periods, subjects undergo a euglycaemic clamp procedure for up to 24/36 hours following each insulin compound injection. Glucose infusion rates (GIR) are adjusted to maintain euglycaemia, with the documented GIR over time providing the GD measure of insulin action. The aim of the euglycaemic glucose clamp is to maintain euglycaemia through glucose infusion after the administration of a dose of an insulin compound. It is assumed that endogenous insulin secretion and hepatic glucose output are minimal and that any glucose that is translocated out of the glucose space (i.e., glucose metabolised) is the direct consequence of the administered exogenous insulin. The GIR in this case will be the glucodynamic (GD) measure of the insulin action over time. All glucose clamp studies are performed after an overnight fast of approximately 8 hours. On the morning of the study, a small catheter is placed into a vein of one arm, ideally in the ante-cubital fossa, for administration of 20% dextrose solution (buffered to near neutral pH) under the control of a volumetric pump. Another catheter is placed, ideally in the wrist or hand for venous glucose sampling. This area is heated with a warming device to approximately 55-60° C. for sampling arterialized venous blood. Blood samples are obtained at the bedside for immediate determination of whole blood glucose concentrations using an automated glucose oxidase technique. After basal blood sampling and a stabilization period of approximately 30 minutes, each subject receives a dose of insulin compound administered subcutaneously. The start of the subcutaneous injection of an insulin compound is defined as time zero. Following completion of dosing, in conjunction with frequent blood sampling for measurement of blood glucose, glucose is infused intravenously at a variable rate in order to maintain euglycaemia for up to 24 or 36 hours after insulin administration.
Blood sampling occurs approximately every 10 minutes for approximately 30 minutes prior to dosing and continued every 5-10 minutes for the first 2 hours after dosing (with the option to sample as frequently as every 2.5 minutes), and then reduced to 10-30 minute intervals up to the end of clamp.
During the glucose clamp, the glucose infusion rate is adjusted to maintain a pre-determined target blood glucose concentration for the individual subject. Preferably, the target concentration is close to the fasting blood glucose. The aim of the glucose clamp procedure is to maintain the blood glucose concentrations within +5% of the pre-dose target value, which is defined as 5 mg/dL below the mean fasting blood glucose. Thus, blood glucose concentrations are kept constant while the GIR varied. […]

[1] = calculated from published PK profiles; cited from earlier work

Substance | time GD maintained (healthy volunteers; Part C, 0.5 mg/kg SC) | GIR profile versus peak GIR response for glargine (healthy volunteers; Part C, 0.5 mg/kg SC, glargine 0.5 U/kg) | within subject variability in the glucodynamics (healthy volunteers; humans) | duration of action (healthy volunteers; humans, versus insulin glargine (FIG. 2)) | peak-trough (PT) ratio [1]
LY: 20 kDa PEGylated insulin lispro, about 95% or more at B28, prepared essentially as in Example 9 | greater than 36 hours | exceeded the peak GIR response for glargine | less than 30% | longer than that of insulin glargine | 
insulin glargine |  |  |  |  | 1.2-2.6
